Among the data in patent US9315498B2, “Arlethynyl derivatives” (Hoffmann-La Roche Inc., priority 2010, dated 2016) are EC50 and Emax values, retold here.

In the test the target is human mGlu5a receptor (Homo sapiens (Human), UniProt P41594). Put plainly: Intracellular Ca2+ mobilization assay (mGlu5 PAM). The test is classed as cell-based. Conditions: for EC50: HEK-293 cells stably transfected with human mGlu5a, L-glutamate added at EC20 after pre-incubation with test compound, read-out: EC50 (nM) mGlu5PAM; for Emax: maximal response in % of the maximal stimulatory effect obtained with saturating concentrations of L-glutamate, read-out: Eff. (%). On the procedure: A monoclonal HEK-293 cell line stably transfected with a cDNA encoding for the human mGlu5a receptor was generated; for the work with mGlu5 Positive Allosteric Modulators (PAMs), a cell line with low receptor expression levels and low constitutive receptor activity was selected to allow the differentiation of agonistic versus PAM activity. Cells were cultured according to standard protocols (Freshney, 2000) in Dulbecco's Modified Eagle Medium with high glucose supplemented with 1 mM glutamine, 10% (vol/vol) heat-inactivated bovine calf serum, Penicillin/Streptomycin, 50 μg/ml hygromycin and 15 μg/ml blasticidin (all cell culture reagents and antibiotics from Invitrogen, Basel, Switzerland).
About 24 hrs before an experiment, 5×10^4 cells/well were seeded in poly-D-lysine coated, black/clear-bottomed 96-well plates. The cells were loaded with 2.5 μM Fluo-4AM in loading buffer (1×HBSS, 20 mM HEPES) for 1 hr at 37° C. and washed five times with loading buffer. The cells were transferred into a Functional Drug Screening System 7000 (Hamamatsu, Paris, France), and 11 half logarithmic serial dilutions of test compound at 37° C. were added and the cells were incubated for 10-30 min. with on-line recording of fluorescence. Following this pre-incubation step, the agonist L-glutamate was added to the cells at a concentration corresponding to EC20 (typically around 80 μM) with on-line recording of fluorescence; in order to account for day-to-day variations in the responsiveness of cells, the EC20 of glutamate was determined immediately ahead of each experiment by recording of a full dose-response curve of glutamate.
Responses were measured as peak increase in fluorescence minus basal (i.e. fluorescence without addition of L-glutamate), normalized to the maximal stimulatory effect obtained with saturating concentrations of L-glutamate. Graphs were plotted with the % maximal stimulatory using XLfit, a curve fitting program that iteratively plots the data using Levenburg Marquardt algorithm. The single site competition analysis equation used was y=A+((B−A)/(1+((x/C)D))), where y is the % maximal stimulatory effect, A is the minimum y, B is the maximum y, C is the EC50, x is the log10 of the concentration of the competing compound and D is the slope of the curve (the Hill Coefficient). From these curves the EC50 (concentration at which half maximal stimulation was achieved), the Hill coefficient as well as the maximal response in % of the maximal stimulatory effect obtained with saturating concentrations of L-glutamate were calculated.
A depression of the signal observed after addition of the EC20 concentration of L-glutamate was indicative of an inhibitory activity of the test compound.
In general terms: Calcium assays in cells follow changes in intracellular calcium, usually with a dye or a luminescent sensor.

human mGlu5a receptor, sequence (P41594 other isoform, or with tags, fused parts or gaps): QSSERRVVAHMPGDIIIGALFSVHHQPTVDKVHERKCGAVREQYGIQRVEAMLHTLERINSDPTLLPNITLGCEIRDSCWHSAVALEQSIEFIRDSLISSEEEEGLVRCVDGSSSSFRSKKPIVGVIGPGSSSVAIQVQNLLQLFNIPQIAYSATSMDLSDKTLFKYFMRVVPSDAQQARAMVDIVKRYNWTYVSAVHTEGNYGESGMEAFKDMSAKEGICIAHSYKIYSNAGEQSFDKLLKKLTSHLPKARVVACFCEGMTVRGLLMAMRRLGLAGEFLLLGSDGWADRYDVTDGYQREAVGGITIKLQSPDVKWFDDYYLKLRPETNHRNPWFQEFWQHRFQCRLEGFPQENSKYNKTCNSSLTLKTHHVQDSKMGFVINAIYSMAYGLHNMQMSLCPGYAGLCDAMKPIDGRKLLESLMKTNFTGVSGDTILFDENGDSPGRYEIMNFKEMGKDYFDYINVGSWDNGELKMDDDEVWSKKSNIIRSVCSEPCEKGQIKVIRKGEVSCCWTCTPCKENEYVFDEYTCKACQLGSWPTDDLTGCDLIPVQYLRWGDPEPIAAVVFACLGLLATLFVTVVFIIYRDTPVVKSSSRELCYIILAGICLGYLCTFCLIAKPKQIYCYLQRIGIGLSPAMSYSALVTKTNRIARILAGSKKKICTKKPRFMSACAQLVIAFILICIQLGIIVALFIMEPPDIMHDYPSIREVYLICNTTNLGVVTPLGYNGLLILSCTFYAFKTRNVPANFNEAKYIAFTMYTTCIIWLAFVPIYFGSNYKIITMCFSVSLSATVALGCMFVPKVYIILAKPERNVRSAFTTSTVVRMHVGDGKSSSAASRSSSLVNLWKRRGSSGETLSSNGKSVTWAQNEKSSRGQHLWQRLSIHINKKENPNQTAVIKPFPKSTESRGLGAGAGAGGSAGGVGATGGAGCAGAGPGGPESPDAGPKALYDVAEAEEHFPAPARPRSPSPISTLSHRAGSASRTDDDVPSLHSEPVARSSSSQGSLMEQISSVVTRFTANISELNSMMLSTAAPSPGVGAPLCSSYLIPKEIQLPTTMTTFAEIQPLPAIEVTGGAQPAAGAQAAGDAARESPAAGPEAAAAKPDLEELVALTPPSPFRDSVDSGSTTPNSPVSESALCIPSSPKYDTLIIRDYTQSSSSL

Regarding `COCC1CN(c2ccc(C#Cc3ccccc3)cn2)C(=O)O1` (racemic) [Example 2, (5RS)-5-Methoxymethyl-3-(5-phenylethynyl-pyridin-2-yl)-oxazolidin-2-one], the half-maximal effective concentration (EC50) – broadly, the concentration that produces a half-maximal response – came to 47 nM and the Emax was found to be 34%.

Take `CC(C)(C)C1CN(c2ccc(C#Cc3ccccc3)cn2)C(=O)O1` (racemic) [Example 8, (5RS)-5-tert-Butyl-3-(5-phenylethynyl-pyridin-2-yl)-oxazolidin-2-one]: the EC50 was 17 nM and the Emax came out at 62%.

For `CC1(C)CN(c2ccc(C#Cc3ccccc3)cn2)C(=O)C1O` (racemic) [Example 14, (3RS)-3-Hydroxy-4,4-dimethyl-1-(5-phenylethynyl-pyridin-2-yl)-pyrrolidin-2-one], the concentration for a half-maximal effect (EC50) came to 388 nM and the Emax is 114%.

As to `CC(C)(C)C1(C)CN(c2ccc(C#Cc3ccccc3)cn2)C(=O)O1` (racemic) [Example 19, (5RS)-5-tert-Butyl-5-methyl-3-(5-phenylethynyl-pyridin-2-yl)-oxazolidin-2-one], the half-maximal effective concentration (EC50) came out at 27 nM and the Emax is 85%.

With `O=C1O[C@H]2CCC[C@H]2N1c1ccc(C#Cc2ccccc2)cn1` (racemic) [Example 22, (3aRS,6aSR)-3-(5-Phenylethynyl-pyridin-2-yl)-hexahydro-cyclopentaoxazol-2-one], the EC50 was 14 nM and the Emax is 74%.

Turning to `O=C1O[C@H]2CCC[C@H]2N1c1ccc(C#Cc2cccnc2)cn1` (racemic) [Example 23, (3aRS,6aSR)-3-(5-Pyridin-3-ylethynyl-pyridin-2-yl)-hexahydro-cyclopentaoxazol-2-one], the EC50 worked out at 12 nM and the Emax was determined as 92%.

`O=C1O[C@H]2CCC[C@H]2N1c1ccc(C#Cc2cncc(F)c2)cn1` (racemic) [Example 24, (3aRS,6aSR)-3-[5-(5-Fluoro-pyridin-3-ylethynyl)-pyridin-2-yl]-hexahydro-cyclopentaoxazol-2-one]: the EC50 came out at 35 nM and the Emax came to 73%.

Consider `CC1N(c2ccc(C#Cc3ccccc3)cn2)C(=O)OC1(C)C` (racemic) [Example 27, (RS)-4,5,5-Trimethyl-3-(5-phenylethynyl-pyridin-2-yl)-oxazolidin-2-one], for which the concentration giving a half-maximal response (EC50) stood at 15 nM and the Emax was 61%.

`CN1C(=O)N(c2ccc(C#Cc3ccccc3)cn2)CC1C1CCCC1` (racemic) [Example 45, (RS)-4-Cyclopentyl-3-methyl-1-(5-phenylethynyl-pyridin-2-yl)-imidazolidin-2-one]: the EC50 stood at 57 nM and the Emax was 97%.

On to `O=C1[C@H]2CCC[C@H]2N1c1ccc(C#Cc2ccccc2)cn1` (racemic) [Example 46, (1RS,5SR)-6-(5-Phenylethynyl-pyridin-2-yl)-6-aza-bicyclo[3.2.0]heptan-7-one], for which the EC50 is 26 nM and the Emax was determined as 27%.

Take `O=C1O[C@H]2CCCC[C@H]2N1c1ccc(C#Cc2ccccc2)cn1` (racemic) [Example 47, (6SR,7RS)-3-(5-Phenylethynyl-pyridin-2-yl)-hexahydro-benzooxazol-2-one]: the EC50 came to 36 nM and the Emax is 109%.

In the case of `O=C1N(c2ccc(C#Cc3ccccc3)cn2)CC2CCCCN12` (racemic) [Example 58, (RS)-2-(5-Phenylethynyl-pyridin-2-yl)-hexahydro-imidazo[1,5-a]pyridin-3-one], the EC50 was 33 nM and the Emax was 43%.

With `COC1C(=O)N(c2ccc(C#Cc3ccccc3)cn2)CC1(C)C` (racemic) [Example 60, (RS)-3-Methoxy-4,4-dimethyl-1-(5-phenylethynyl-pyridin-2-yl)-pyrrolidin-2-one], the EC50 was determined as 35 nM and the Emax came out at 89%.

Regarding `COC1C(=O)N(c2ccc(C#Cc3cncc(Cl)c3)cn2)CC1(C)C` (racemic) [Example 63, (RS)-1-[5-(5-Chloro-pyridin-3-ylethynyl)-pyridin-2-yl]-3-methoxy-4,4-dimethyl-pyrrolidin-2-one], the 50% effective concentration (EC50) turned out to be 70 nM and the Emax was 99%.

As to `COC1C(=O)N(c2ccc(C#Cc3cccc(C)c3)cn2)CC1(C)C` (racemic) [Example 64, (RS)-3-Methoxy-4,4-dimethyl-1-(5-m-tolylethynyl-pyridin-2-yl)-pyrrolidin-2-one], the concentration for a half-maximal effect (EC50) turned out to be 87 nM and the Emax was 56%.

In the case of `COC1C(=O)N(c2ccc(C#Cc3cccc(F)c3)cn2)CC1(C)C` (racemic) [Example 65, (RS)-1-[5-(3-Fluoro-phenylethynyl)-pyridin-2-yl]-3-methoxy-4,4-dimethyl-pyrrolidin-2-one], the EC50 worked out at 43 nM and the Emax stood at 91%.

Turning to `COC1C(=O)N(c2ccc(C#Cc3ccc(F)cc3)cn2)CC1(C)C` (racemic) [Example 66, (RS)-1-[5-(4-Fluoro-phenylethynyl)-pyridin-2-yl]-3-methoxy-4,4-dimethyl-pyrrolidin-2-one], the half-maximal effective concentration (EC50) stood at 75 nM and the Emax came to 87%.

With `O=C1N(c2ccc(C#Cc3cccnc3)cn2)CC2CCCCN12` (racemic) [Example 70, (RS)-2-(5-Pyridin-3-ylethynyl-pyridin-2-yl)-hexahydro-imidazo[1,5-a]pyridin-3-one], the EC50 was 74 nM and the Emax came out at 51%.

Take `O=C1N(c2ccc(C#Cc3cccc(F)c3)cn2)CC2CCCCN12` (racemic) [Example 71, (RS)-2-[5-(3-Fluoro-phenylethynyl)-pyridin-2-yl]-hexahydro-imidazo[1,5-a]pyridin-3-one]: the concentration for a half-maximal effect (EC50) amounted to 17 nM and the Emax was determined as 41%.

In the case of `CN1C(=O)N(c2ccc(C#Cc3ccccc3)cn2)CC1C1CC1` (racemic) [Example 83, (RS)-4-Cyclopropyl-3-methyl-1-(5-phenylethynyl-pyridin-2-yl)-imidazolidin-2-one], the EC50 was found to be 53 nM and the Emax amounted to 86%.

Take `CC1(C)OC(=O)N(c2ccc(C#Cc3ccccc3)cn2)CC1O` (racemic) [Example 95, (RS)-5-Hydroxy-6,6-dimethyl-3-(5-phenylethynyl-pyridin-2-yl)-[1,3]oxazinan-2-one]: the EC50 is 47 nM and the Emax is 118%.

Take `O=C1[C@H]2CCC[C@H]2N1c1ccc(C#Cc2cccnc2)cn1` (racemic) [Example 98, (1RS,5SR)-6-(5-Pyridin-3-ylethynyl-pyridin-2-yl)-6-aza-bicyclo[3.2.0]heptan-7-one]: the half-maximal effective concentration (EC50) stood at 39 nM and the Emax came out at 73%.

Consider `O=C1O[C@H]2CCC[C@@H]2CN1c1ccc(C#Cc2ccccc2)cn1` (racemic) [Example 102, (4aRS,7aSR)-3-(5-Phenylethynyl-pyridin-2-yl)-hexahydro-cyclopenta[e][1,3]oxazin-2-one], for which the EC50 is 43 nM and the Emax is 115%.

For `CC1CN(c2ccc(C#Cc3ccccc3)cn2)C(=O)OC1(C)C` (racemic) [Example 104, (RS)-5,6,6-Trimethyl-3-(5-phenylethynyl-pyridin-2-yl)-[1,3]oxazinan-2-one], the 50% effective concentration (EC50) was determined as 42 nM and the Emax worked out at 109%.

For `COCC1CCN(c2ccc(C#Cc3ccccc3)cn2)C(=O)O1` (racemic) [Example 105, (RS)-6-Methoxymethyl-3-(5-phenylethynyl-pyridin-2-yl)-[1,3]oxazinan-2-one], the EC50 was 68 nM and the Emax is 51%.

For `CN1C(=O)N(c2ccc(C#Cc3ccccc3)cn2)[C@@H]2CCC[C@@H]21` (racemic) [Example 106, (3aRS, 6aSR)-1-methyl-3-(5-(phenylethynyl)pyridin-2-yl)hexahydrocyclopenta[d]imidazol-2(1H)-one], the concentration for a half-maximal effect (EC50) is 30 nM and the Emax was 42%.

`CN1C(=O)N(c2ccc(C#Cc3ccccc3)cn2)CC1C(C)(C)C` (racemic) [Example 107, (RS)-4-tert-Butyl-3-methyl-1-(5-phenylethynyl-pyridin-2-yl)-imidazolidin-2-one]: the EC50 is 59 nM and the Emax worked out at 106%.

On to `CN1C(=O)N(c2ccc(C#Cc3cccc(F)c3)cn2)[C@@H]2CCC[C@@H]21` (racemic) [Example 109, (3aSR,6aRS)-1-[5-(3-Fluoro-phenylethynyl)-pyridin-2-yl]-3-methyl-hexahydro-cyclopenta-imidazol-2-one], for which the EC50 was 18 nM and the Emax worked out at 37%.
